Experimental data reported in paper doi:10.1101/2020.08.20.259572v2 (biorxiv, 2020).

T1: GlyT1b (hGlyT1b; Flag-Glyt1b) (Homo sapiens, UniProt P48067)
T1 sequence (P48067 15-652 isoform P48067-3): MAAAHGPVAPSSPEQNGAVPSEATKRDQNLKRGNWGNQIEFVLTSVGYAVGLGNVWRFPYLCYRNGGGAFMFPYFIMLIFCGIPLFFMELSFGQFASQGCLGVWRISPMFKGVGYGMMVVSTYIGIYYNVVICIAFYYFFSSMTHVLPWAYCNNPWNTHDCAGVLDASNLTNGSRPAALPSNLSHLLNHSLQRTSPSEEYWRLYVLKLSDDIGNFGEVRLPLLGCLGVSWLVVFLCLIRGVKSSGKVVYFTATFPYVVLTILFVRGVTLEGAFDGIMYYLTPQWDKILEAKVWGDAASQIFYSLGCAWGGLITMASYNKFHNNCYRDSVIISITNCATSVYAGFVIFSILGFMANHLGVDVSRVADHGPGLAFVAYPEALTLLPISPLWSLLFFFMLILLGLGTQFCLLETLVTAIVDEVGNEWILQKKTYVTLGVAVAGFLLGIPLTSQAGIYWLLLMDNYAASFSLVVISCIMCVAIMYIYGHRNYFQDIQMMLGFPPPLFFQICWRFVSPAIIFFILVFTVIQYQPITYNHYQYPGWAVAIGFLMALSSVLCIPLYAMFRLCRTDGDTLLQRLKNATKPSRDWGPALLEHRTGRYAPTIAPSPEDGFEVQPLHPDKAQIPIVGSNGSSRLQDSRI

B1: GlyT1b (hGlyT1b; Flag-Glyt1b) (Homo sapiens) (protein)
chain: MAAAHGPVAPSSPEQNGAVPSEATKRDQNLKRGNWGNQIEFVLTSVGYAVGLGNVWRFPYLCYRNGGGAFMFPYFIMLIFCGIPLFFMELSFGQFASQGCLGVWRISPMFKGVGYGMMVVSTYIGIYYNVVICIAFYYFFSSMTHVLPWAYCNNPWNTHDCAGVLDASNLTNGSRPAALPSNLSHLLNHSLQRTSPSEEYWRLYVLKLSDDIGNFGEVRLPLLGCLGVSWLVVFLCLIRGVKSSGKVVYFTATFPYVVLTILFVRGVTLEGAFDGIMYYLTPQWDKILEAKVWGDAASQIFYSLGCAWGGLITMASYNKFHNNCYRDSVIISITNCATSVYAGFVIFSILGFMANHLGVDVSRVADHGPGLAFVAYPEALTLLPISPLWSLLFFFMLILLGLGTQFCLLETLVTAIVDEVGNEWILQKKTYVTLGVAVAGFLLGIPLTSQAGIYWLLLMDNYAASFSLVVISCIMCVAIMYIYGHRNYFQDIQMMLGFPPPLFFQICWRFVSPAIIFFILVFTVIQYQPITYNHYQYPGWAVAIGFLMALSSVLCIPLYAMFRLCRTDGDTLLQRLKNATKPSRDWGPALLEHRTGRYAPTIAPSPEDGFEVQPLHPDKAQIPIVGSNGSSRLQDSRI

How the values were obtained:
[1] = biological target: T1, GlyT1b (hGlyT1b; Flag-Glyt1b); assay: displacement of […] [3H]CHIBA-3007, membrane filtration assay; type: binding; conditions: 150 mM NaCl, 10 mM HEPES pH 7.4, RT
[2] = substrate: NCC(=O)O; assay: [3H]glycine uptake into transfected HEK MSR cells; type: cell-based, Homo sapiens; conditions: 0.05-200 µM glycine

| Molecule | KI [1] [µM] | Km [2] [µM] |
| --- | --- | --- |
| NCC(=O)O [glycine] | 330 ± 10 | – |
| B1 | – | 35.2 ± 2.1 |
